Experimental findings from EP0534511A1, “HIV protease inhibitors useful for the treatment of aids” (MERCK & CO. INC., priority 1991, dated 1993) are described below.

This experiment deals with T1, HIV protease (Human immunodeficiency virus type 1 group M subtype B, UniProt P04585).
T1 construct: the protease expressed in Eschericia coli; made in house; host or cells: Escherichia coli
The experiment is described as follows: Assay for Inhibition of Microbial Expressed Viral Protease. It is filed as biochemical. The following applies: protease expressed in Eschericia coli; peptide substrate Val-Ser-Gln-Asn-(betanapthyl)Ala-Pro-Ile-Val 0.5 mg/mL; 50 mM Na acetate, pH 5.5, 30°C, 1 hour; HPLC; read-out: IC₅₀. How it is done:
Assay for Inhibition of Microbial Expressed Viral Protease
Inhibition studies of the reaction of the protease expressed in Eschericia coli with a peptide substrate [Val-Ser-Gln-Asn-(betanapthyl)Ala-Pro-Ile-Val, 0.5 mg/mL at the time the reaction is initiated] were in 50 mM Na acetate, pH 5.5, at 30°C for 1 hour. Various concentrations of inhibitor in 1.0 ul DMSO were added to 25 ul of the peptide solution in water. The reaction is initiated by the addition of 15 ul of 0.33 nM protease (0.11 ng) in a solution of 0.133 M Na acetate pH 5.5 and 0.26% bovine serum albumin. The reaction was quenched with 160 ul of 5% phosphoric acid. Products of the reaction were separated by HPLC (VYDAC wide pore 5 cm C-18 reverse phase, acetonitrile gradient, 0.1% phosphoric acid). The extent of inhibition of the reaction was determined from the peak heights of the products.

`O=C(N[C@@H](CC1CCCCC1)[C@@H](O)C[C@@H](Cc1ccccc1)C(=O)N[C@H]1c2ccccc2C[C@H]1O)O[C@H]1CCOC1` [C, N-[(2R)-hydroxy-1(S)-indanyl]-5(S)-(3(S)-tetrahydrofuranyloxycarbonylamino)-4(S)-hydroxy-6-cyclohexyl-2(R)-phenylmethyl hexamamide]: the IC50 amounted to 0.04 nM.

As for `CC(C)[C@H](C[C@H](O)[C@H](CC1CCCCC1)NC(=O)O[C@H]1CCOC1)C(=O)N[C@H]1c2ccccc2C[C@H]1O` [A, N-[(2R)-hydroxy-1(S)-indanyl]-5(S)-(3(S)-tetrahydrofuranyloxycarbonylamino)-4(S)-hydroxy-6-cyclohexyl-2(R)-isopropyl hexanamide], the IC50 is 0.37 nM.
